According to patent US20250313574A1, “SIALIC ACID DERIVATIVES AND METHODS OF USING SAME” (EISAI R&D MANAGEMENT CO., LTD., priority 2022, published 2025):

Key:
[1] = molecular target: Recombinant Human Siglec-3/CD33 protein (His-CD33) (Homo sapiens (Human), UniProt P20138); test: Differential scanning fluorimetry (DSF) thermal shift assay; type: binding
[2] = molecular target: Recombinant human CD33 protein (Homo sapiens (Human), UniProt P20138); test: CD33 competitive binding assay for HTS drug screen (fluorescent multivalent sialic acid probe)
In short: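 Recombinant human CD33, coated overnight at 4° C from 10 μg/ml in pH 5.5 acetate, was preincubated briefly with compound. It was then exposed to a multivalent neutravidin/FITC/sialic acid analog A-375 probe (final 5 μM neutravidin, 15 μM A-375, 5 μM FITC) for 30 min at room temperature. After washing, bound FITC fluorescence was read.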

[3] = difference in thermal melt of CD33 protein (0.5 μM) with 50 μM compound
[4] = thermal melt shift of 0.5 μM CD33 protein with 50 μM compound

Sequence of Recombinant human CD33 protein (P20138 18-259): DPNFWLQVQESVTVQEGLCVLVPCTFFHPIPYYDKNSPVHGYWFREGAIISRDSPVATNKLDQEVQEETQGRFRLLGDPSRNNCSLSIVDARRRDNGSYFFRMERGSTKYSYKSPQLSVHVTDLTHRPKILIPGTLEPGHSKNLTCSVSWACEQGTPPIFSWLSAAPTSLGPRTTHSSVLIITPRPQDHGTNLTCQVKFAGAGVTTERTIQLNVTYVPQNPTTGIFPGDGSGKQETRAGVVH
Sequence of Recombinant Human Siglec-3/CD33 protein (His-CD33) (P20138 18-259): as above

Compound | DSF (dTmD) [1, 3] [°C] | EC50 [2] [nM] | DSF (dTmD) [1, 4]
Cc1cc(C(=O)NC[C@@H](O)[C@@H](O)[C@@H]2O[C@@](C/C=C/c3cccc(CNC(=O)OC(C)(C)C)c3)(C(=O)O)C[C@H](O)[C@H]2NC(=O)Cn2cc(C3CCCCC3)nn2)cc(C)c1O [A-285] | 9.0 | 9980 | –
CC(=O)N[C@H]1[C@H]([C@H](O)[C@H](O)CNC(=O)c2cc(F)c(C(F)(F)F)c(F)c2)O[C@@](CCN2CCOC[C@@]23CCN(C(=O)OC(C)(C)C)C3)(C(=O)O)C[C@@H]1O [A-166] | – | 4000 | 6.9
CC(=O)N[C@H]1[C@H]2O[C@](C(=O)O)(CC/C=C/CO[C@H]3C[C@H](CN3C(=O)C3CCCOC3)OCCOc3c(C)cc(cc3C)C(=O)NC[C@@H](O)[C@H]2O)C[C@@H]1O (some centres unmarked) [A-357] | 1.1 | 66100 | –
CC(=O)N[C@H]1[C@H]2O[C@](C(=O)O)(C/C=C/CCC[C@@H](NC(=O)[C@H]3CCCOC3)c3cccc(c3)COc3c(C)cc(cc3C)C(=O)NC[C@@H](O)[C@H]2O)C[C@@H]1O [A-355] | 1.3 | 35400 | –
CC(=O)N[C@H]1[C@H]([C@H](O)[C@H](O)CNC(=O)c2cc(C)c(N)c(C)c2)O[C@@](CCN2CCOC[C@@]23CCN(C(=O)OC(C)(C)C)C3)(C(=O)O)C[C@@H]1O [A-119] | – | 17 | 14.0
CC(=O)N[C@H]1[C@H]([C@H](O)[C@H](O)CNC(=O)c2cn[nH]c2)O[C@@](CCN2CCOC[C@@]23CCN(C(=O)OC(C)(C)C)C3)(C(=O)O)C[C@@H]1O [A-161] | – | 1080 | 5.9
CC(=O)N[C@H]1[C@H]([C@H](O)[C@@](C)(O)CNC(=O)c2cc(C)c(O)c(C)c2)O[C@@](CCN2CCOC[C@@]23CCN(C(=O)OC(C)(C)C)C3)(C(=O)O)C[C@@H]1O [A-205] | 3.5 | 1820 | –
Cc1cc(C(=O)NC[C@@H](O)[C@@H](O)[C@@H]2O[C@@](OC3CCCCC3NC(=O)Cn3cc(CNC(=O)c4ccccn4)nn3)(C(=O)O)C[C@H](O)[C@H]2NC(=O)Cn2cc(C3CCCCC3)nn2)cc(C)c1O (some centres unmarked) [A-332] | 5.4 | 2300 | –
CC(=O)N[C@H]1[C@H]([C@H](O)[C@H](O)CNC(=O)c2cc(C)c(O)c(C)c2)O[C@@](CCN2CCOC[C@@]23CCN(c2cnccn2)C3)(C(=O)O)C[C@@H]1O [A-040] | – | 363 | 6.3
CC(=O)N[C@H]1[C@H]([C@H](O)[C@H](O)CNC(=O)c2cn(C)nc2C)O[C@@](CCN2CCOC[C@@]23CCN(C(=O)OC(C)(C)C)C3)(C(=O)O)C[C@@H]1O [A-136] | – | 440 | 6.5
CC(=O)N[C@H]1[C@H]([C@H](O)[C@H](O)CNC(=O)c2cc(C)c(O)c(C)c2)O[C@@](CCN2CCCC[C@@]23CN(C(=O)OC(C)(C)C)C[C@H]3CO)(C(=O)O)C[C@@H]1O [A-029] | – | 9730 | 2.1
CC(=O)N[C@H]1[C@H]([C@H](O)[C@H](O)CNC(=O)c2cccc(SC(F)(F)F)c2)O[C@@](CCN2CCOC[C@@]23CCN(C(=O)OC(C)(C)C)C3)(C(=O)O)C[C@@H]1O [A-169] | – | 4720 | 6.2
CC(=O)N[C@H]1[C@H]([C@H](O)[C@H](O)CNC(=O)c2cnc(O)c(C)c2)O[C@@](CCN2CCOC[C@@]23CCN(C(=O)OC(C)(C)C)C3)(C(=O)O)C[C@@H]1O [A-189] | – | 150 | 9.8
CC(=O)N[C@H]1[C@H]([C@H](O)[C@H](O)CNC(=O)c2cc(C)c(O)c(C)c2)O[C@@](CC2OC(C)(C)O[C@H]2c2cc(N3CCCC3=O)ccc2C)(C(=O)O)C[C@@H]1O (some centres unmarked) [A-318] | 7.4 | 130 | –
CC(=O)N[C@H]1[C@H]([C@H](O)[C@H](O)CNC(=O)c2cc(C)c(O)c(C)c2)O[C@@](C/C=C/c2cccc(CNC(=O)c3ccc4[nH]nnc4c3)c2)(C(=O)O)C[C@@H]1O [A-237] | 0.8 | 5030 | –
CC(=O)N[C@H]1[C@H]([C@H](O)[C@H](O)CNC(=O)c2cc(C)c(O)c(C)c2)O[C@@](CCCC2(C)CCN(C(=O)OC(C)(C)C)C2)(C(=O)O)C[C@@H]1O (some centres unmarked) [A-196] | – | 257 | 7.7
CCc1cccc(C(=O)NC[C@@H](O)[C@@H](O)[C@@H]2O[C@@](CCN3CCOC[C@@]34CCN(C(=O)OC(C)(C)C)C4)(C(=O)O)C[C@H](O)[C@H]2NC(C)=O)c1 [A-155] | – | 200 | 10.1

Compound | DSF (dTmD) [1, 3] [°C] | EC50 [2] [nM] | DSF (dTmD) [1, 4]
CC(=O)N[C@H]1[C@H]([C@H](O)[C@H](O)CNC(=O)c2cc(C)c3[nH]c(CO)cc3c2)O[C@@](CCN2CCOC[C@@]23CCN(C(=O)OC(C)(C)C)C3)(C(=O)O)C[C@@H]1O [A-134] | – | 14 | 15.8
CC(=O)N[C@H]1[C@H]([C@H](O)[C@H](O)CNC(=O)c2cc(C)c(O)c(C)c2)O[C@@](CCN2CC(=O)N(C)C[C@@]23CCN(C(=O)OC(C)(C)C)C3)(C(=O)O)C[C@@H]1O [A-016] | – | 34 | 9.7
CC(=O)N[C@H]1[C@H]([C@H](O)[C@H](O)CNC(=O)c2cc(C)c(O)c(C)c2)O[C@@](C[C@@H]2COCC3(CCN(C(=O)OC(C)(C)C)CC3)N2)(C(=O)O)C[C@@H]1O [A-230] | 1.1 | 10600 | –
Cc1cc(C(=O)NC[C@@H](O)[C@@H](O)[C@@H]2O[C@@](OC3CCCCC3NC(=O)CNC(=O)COC3CCCC3)(C(=O)O)C[C@H](O)[C@H]2NC(=O)Cn2cc(C3CCCCC3)nn2)cc(C)c1O (some centres unmarked) [A-329] | 1.4 | 15200 | –
CC(=O)N[C@H]1[C@H]2O[C@](C(=O)O)(CCCc3cccc(c3)[C@@H](NC(=O)C3CCCOC3)CCCCc3cc(cc(Cl)c3O)C(=O)NC[C@@H](O)[C@H]2O)C[C@@H]1O (some centres unmarked) [A-351] | 3.1 | 15000 | –
CC(=O)N[C@H]1[C@H]([C@H](O)[C@H](O)CNC(=O)c2cc(C)c(O)c(C)c2)O[C@@](C/C=C/c2cccc(CNC(=O)C3CCC(Nc4ccc(C(N)=O)cn4)CC3)c2)(C(=O)O)C[C@@H]1O (some centres unmarked) [A-258] | 0.8 | 9370 | –
COC(=O)[C@@]1(CCN2CCOC[C@@]23CCN(C(=O)OC(C)(C)C)C3)C[C@H](O)[C@@H](NC(C)=O)[C@H]([C@H](O)[C@H](O)CNC(=O)c2cc(C)c(O)c(C)c2)O1 [A-361] | −0.3 | 49000 | –
CC(=O)N[C@H]1[C@H]([C@H](O)[C@H](O)CNC(=O)c2cc(C)c(O)c(C)c2)O[C@@](CCN2CCNC[C@@]23CCN(C(=O)OC(C)(C)C)C3)(C(=O)O)C[C@@H]1O [A-012] | – | 22 | 12.6
CC(=O)N[C@H]1[C@H]([C@H](O)[C@H](O)CNC(=O)c2cc(C)c(O)c(C)c2)O[C@@](CCN2CCOC[C@@]23CCN(C(=O)OC(C)(C)C)C3)(C(=O)O)C[C@@]1(C)O [A-201] | 6.2 | 1720 | –
CC(=O)N[C@H]1[C@H]([C@H](O)[C@H](O)CNC(=O)c2c[nH]nc2C(F)(F)F)O[C@@](CCN2CCOC[C@@]23CCN(C(=O)OC(C)(C)C)C3)(C(=O)O)C[C@@H]1O [A-175] | – | 4110 | 4.6
Cc1ccc(CNC(=O)C2CCCOC2)cc1/C=C/C[C@]1(C(=O)O)C[C@H](O)[C@@H](NC(=O)Cn2cc(C3CCCCC3)nn2)[C@H]([C@H](O)[C@H](O)CNC(=O)c2cc(C)c(O)c(C)c2)O1 (some centres unmarked) [A-286] | 2.2 | 2840 | –
CC(=O)N[C@H]1[C@H]([C@H](O)[C@H](O)CNC(=O)c2cc(C)c(O)c(C)c2)O[C@@](CC2OC(C)(C)O[C@H]2c2cccc(CN3CCOCC3)c2)(C(=O)O)C[C@@H]1O (some centres unmarked) [A-313] | 0.0 | 11900 | –
Cc1cc2cc(C)c1OCc1cccc(c1)[C@H](NC(=O)C1CCCOC1)CCC/C=C/C[C@]1(C(=O)O)C[C@H](O)[C@@H](NC(=O)Cn3cc(C4CCCCC4)nn3)[C@@H](O1)[C@H](O)[C@H](O)CNC2=O (some centres unmarked) [A-356] | 4.8 | 1510 | –
COCc1cc2cc(C(=O)NCc3cccc(/C=C/C[C@]4(C(=O)O)C[C@H](O)[C@@H](NC(C)=O)[C@H]([C@H](O)[C@H](O)CNC(=O)c5cc(C)c(O)c(C)c5)O4)c3)ccc2[nH]1 [A-232] | 9.8 | 74 | –
CC(=O)N[C@H]1[C@H]([C@H](O)[C@H](O)CNC(=O)c2cc(C)c(O)c(C)c2)O[C@@](CCN2CCOC[C@@]23CCN(C(=O)OC(C)(C)C)C3)(C(=O)NC#N)C[C@@H]1O [A-366] | 2.9 | 2830 | –
CC(=O)N[C@H]1[C@H]([C@H](O)[C@H](O)CNC(=O)c2cc(C)c(O)c(C)c2)O[C@@](CCN2CCOC[C@@]23CCN(C(=O)NC(C)C)C3)(C(=O)O)C[C@@H]1O [A-048] | – | 24 | 12.5
CC(=O)N[C@H]1[C@H]([C@H](O)[C@H](O)CNC(=O)c2cc(C)c(O)c(C)c2)O[C@@](C/C=C/c2cccc(CNC(=O)c3ccc4[nH]cnc4c3)c2)(C(=O)O)C[C@@H]1O [A-236] | 4.4 | 2010 | –
